Reference: ChEMBL document CHEMBL1255556, “6-Alkoxyisoindolin-1-one based dopamine D2 partial agonists as potential antipsychotics” (Bioorg Med Chem Lett, 2010)

Legend:
[1] = molecular target: T1, 5-hydroxytryptamine receptor 1A (Homo sapiens) (UniProt P08908); assay: Intrinsic activity at human […] 5HT1A receptor expressed in HeLa cells by FLIPR assay; format: cell-based
T1 sequence (whole entry): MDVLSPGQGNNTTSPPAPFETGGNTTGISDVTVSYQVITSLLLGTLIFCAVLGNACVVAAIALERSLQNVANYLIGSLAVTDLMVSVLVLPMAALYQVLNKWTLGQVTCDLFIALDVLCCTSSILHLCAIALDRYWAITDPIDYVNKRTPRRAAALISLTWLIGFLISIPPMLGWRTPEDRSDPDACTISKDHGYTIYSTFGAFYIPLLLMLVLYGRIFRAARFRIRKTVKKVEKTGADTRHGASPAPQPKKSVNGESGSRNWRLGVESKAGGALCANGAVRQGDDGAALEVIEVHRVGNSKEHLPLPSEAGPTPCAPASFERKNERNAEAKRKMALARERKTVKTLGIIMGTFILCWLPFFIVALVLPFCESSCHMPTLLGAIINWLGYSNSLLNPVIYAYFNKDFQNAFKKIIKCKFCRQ

Mus musculus [2] = assay: In vivo intrinsic activity at D2 receptor in mouse brain assessed as inhibition of gamma-butyrolactone-induced increase in DOPA synthesis at 30 mg/kg, po administered 60 mins before gamma-butyrolactone challenge measured after 30 mins; format: functional
Mus musculus [3] = assay: Antipsychotic activity in po dosed mouse assessed as inhibition of spontaneous locomotor activity; format: functional; details: for minimal effective dose: read-out: MED
[4] = Apparent intrinsic clearance in human liver microsomes; format: ADME, Microsome
Mus musculus [5] = assay: Induction of catalepsy in mouse at 30 mg/kg, po; format: organism-based; set-up: dose 30 mg/kg, route oral; details: in vivo
[6] = molecular target: T2, 5-hydroxytryptamine receptor 1A (Homo sapiens, UniProt P08908); assay: Binding affinity to human 5HT1A receptor expressed in HeLa cells by scintillation proximity assay; format: cell-based
T2 sequence (P08908 whole entry): T1 sequence (whole entry)

[7] = molecular target: T1, 5-hydroxytryptamine receptor 1A (Homo sapiens); assay: Intrinsic activity at human […] 5HT1A receptor expressed in HeLa cells by [3H]-thymidine uptake assay; format: cell-based
[8] = molecular target: Voltage-gated inwardly rectifying potassium channel KCNH2 (Homo sapiens, UniProt Q12809)
Description: Displacement of [3H]dofetilide from human ERG

[9] = molecular target: T2, 5-hydroxytryptamine receptor 1A; assay: biochemical
Description: Displacement of [3H]-8-OH-DPAT from human 5HT1A receptor expressed in HeLa cells

[10] = molecular target: 5-hydroxytryptamine receptor 2A (Homo sapiens, UniProt P28223); assay: Binding affinity to human 5HT2A receptor
[11] = molecular target: T3, Sodium-dependent serotonin transporter (Homo sapiens, UniProt P31645); assay: Displacement of [3H]-citalopram from human serotonin transporter expressed in HEK 293 cells; format: cell-based, HEK293
[12] = molecular target: T3, Sodium-dependent serotonin transporter; assay: Displacement of [3H]-citalopram from human serotonin transporter expressed in HEK 293 cells by scintillation proximity assay; format: cell-based, HEK293
Rattus norvegicus [13] = assay: Ex vivo D2 receptor occupancy in po dosed rat striatum assessed as inhibition [3H]-raclopride binding at 47 ng/ml plasma concentration; format: functional; set-up: scale not given: the % may be the effect or the level left
Rattus norvegicus [14] = assay: Ex vivo D2 receptor occupancy in po dosed rat striatum assessed as inhibition [3H]-raclopride binding at 188 ng/ml plasma concentration; format: functional; set-up: scale not given: the % may be the effect or the level left
[15] = Ratio of drug level in brain to plasma in po dosed rat; format: ADME, organism-based; details: read-out: BPR
Rattus norvegicus [16] = assay: Ex vivo D2 receptor occupancy in rat striatum assessed as inhibition [3H]-raclopride binding at 1 mg/kg, po; format: functional; set-up: scale not given: the % may be the effect or the level left
Mus musculus [17] = assay: Induction of catalepsy in mouse at 10 mg/kg, po; format: organism-based; set-up: dose 10 mg/kg, route oral; details: in vivo
Rattus norvegicus [18] = assay: Ex vivo D2 receptor occupancy in po dosed rat striatum assessed as inhibition [3H]-raclopride binding at 82 ng/ml plasma concentration; format: functional; set-up: scale not given: the % may be the effect or the level left
Rattus norvegicus [19] = assay: Ex vivo D2 receptor occupancy in po dosed rat striatum assessed as inhibition [3H]-raclopride binding at 243 ng/ml plasma concentration; format: functional; set-up: scale not given: the % may be the effect or the level left
Rattus norvegicus [20] = assay: Ex vivo D2 receptor occupancy in rat striatum assessed as inhibition [3H]-raclopride binding at 30 mg/kg, po; format: functional; set-up: scale not given: the % may be the effect or the level left

Sequence of Voltage-gated inwardly rectifying potassium channel KCNH2 (Q12809 whole entry): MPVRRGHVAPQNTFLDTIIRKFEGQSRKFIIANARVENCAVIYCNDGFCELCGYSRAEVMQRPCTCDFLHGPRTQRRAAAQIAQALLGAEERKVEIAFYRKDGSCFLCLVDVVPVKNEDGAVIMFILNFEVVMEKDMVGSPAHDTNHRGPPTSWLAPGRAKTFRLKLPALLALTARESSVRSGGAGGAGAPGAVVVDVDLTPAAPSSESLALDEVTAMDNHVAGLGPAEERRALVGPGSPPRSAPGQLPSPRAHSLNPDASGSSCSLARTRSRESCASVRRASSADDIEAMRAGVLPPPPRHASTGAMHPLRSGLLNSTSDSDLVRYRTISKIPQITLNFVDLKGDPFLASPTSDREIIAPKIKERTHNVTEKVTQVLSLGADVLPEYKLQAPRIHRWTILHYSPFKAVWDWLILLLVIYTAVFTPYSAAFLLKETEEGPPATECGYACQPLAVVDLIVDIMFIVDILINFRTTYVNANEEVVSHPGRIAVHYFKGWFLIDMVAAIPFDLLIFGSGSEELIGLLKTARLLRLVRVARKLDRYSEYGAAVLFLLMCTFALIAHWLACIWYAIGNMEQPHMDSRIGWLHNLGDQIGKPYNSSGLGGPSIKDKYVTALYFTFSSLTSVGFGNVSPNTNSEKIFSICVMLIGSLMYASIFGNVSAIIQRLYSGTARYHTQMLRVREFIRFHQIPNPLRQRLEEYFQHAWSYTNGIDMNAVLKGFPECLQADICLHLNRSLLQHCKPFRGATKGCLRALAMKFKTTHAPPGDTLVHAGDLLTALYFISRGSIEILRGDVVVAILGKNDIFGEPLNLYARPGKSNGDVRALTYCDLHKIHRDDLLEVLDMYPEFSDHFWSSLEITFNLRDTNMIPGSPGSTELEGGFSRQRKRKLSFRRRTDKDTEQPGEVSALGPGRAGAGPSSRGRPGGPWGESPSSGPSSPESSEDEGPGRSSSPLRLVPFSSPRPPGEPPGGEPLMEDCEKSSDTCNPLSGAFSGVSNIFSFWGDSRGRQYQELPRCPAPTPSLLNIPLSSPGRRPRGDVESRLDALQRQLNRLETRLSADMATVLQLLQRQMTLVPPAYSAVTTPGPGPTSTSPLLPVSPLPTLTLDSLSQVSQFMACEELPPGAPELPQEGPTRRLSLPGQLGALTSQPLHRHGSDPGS
Sequence of 5-hydroxytryptamine receptor 2A (P28223 whole entry): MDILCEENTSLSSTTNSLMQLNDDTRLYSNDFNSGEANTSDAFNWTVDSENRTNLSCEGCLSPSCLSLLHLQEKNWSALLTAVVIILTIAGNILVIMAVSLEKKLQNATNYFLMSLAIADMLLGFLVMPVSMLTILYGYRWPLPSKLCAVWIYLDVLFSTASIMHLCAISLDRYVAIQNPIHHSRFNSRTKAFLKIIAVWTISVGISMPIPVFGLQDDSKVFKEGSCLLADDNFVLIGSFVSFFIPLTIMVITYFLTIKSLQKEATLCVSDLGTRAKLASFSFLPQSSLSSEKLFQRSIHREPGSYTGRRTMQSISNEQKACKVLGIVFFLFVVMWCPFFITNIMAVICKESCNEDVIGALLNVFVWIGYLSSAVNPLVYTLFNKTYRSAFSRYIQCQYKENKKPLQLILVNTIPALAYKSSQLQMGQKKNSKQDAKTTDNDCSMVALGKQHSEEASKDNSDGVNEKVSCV
T3 sequence (P31645 whole entry): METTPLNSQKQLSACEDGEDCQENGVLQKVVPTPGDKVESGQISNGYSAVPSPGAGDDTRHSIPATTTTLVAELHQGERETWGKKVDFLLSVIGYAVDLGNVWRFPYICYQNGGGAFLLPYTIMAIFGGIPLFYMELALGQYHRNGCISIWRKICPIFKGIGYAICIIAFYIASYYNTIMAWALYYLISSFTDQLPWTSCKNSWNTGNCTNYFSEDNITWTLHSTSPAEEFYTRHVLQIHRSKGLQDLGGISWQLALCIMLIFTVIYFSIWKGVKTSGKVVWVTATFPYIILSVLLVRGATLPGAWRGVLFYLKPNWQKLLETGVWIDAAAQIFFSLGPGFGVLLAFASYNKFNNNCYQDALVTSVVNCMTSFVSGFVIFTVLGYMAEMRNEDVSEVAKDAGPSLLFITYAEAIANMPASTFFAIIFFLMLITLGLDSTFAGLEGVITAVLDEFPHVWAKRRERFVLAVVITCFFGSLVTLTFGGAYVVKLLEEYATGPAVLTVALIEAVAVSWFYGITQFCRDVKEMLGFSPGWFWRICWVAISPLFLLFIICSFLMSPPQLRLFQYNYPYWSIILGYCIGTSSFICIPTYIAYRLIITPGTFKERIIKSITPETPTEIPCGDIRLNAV

Ki [6]	Intrinsic activity [7]	Ki [9]	Ki [10]	SMILES	Intrinsic activity (Mus musculus [2])	minimal effective dose (Mus musculus [3])	Ki [8]	other results
0.541 nM	88.8%	0.0152 nM		O=C1NCc2ccc(OCCCN3CCN(c4cccc5ccccc45)CC3)cc21			2810 nM	Intrinsic activity [1]: 65.9%
2.22 nM	66.7%	0.151 nM	4.95 nM	O=C1NCc2ccc(OCCCCN3CCN(c4cccc5ccccc45)CC3)cc21	43%	1 mg/kg	1850 nM	Ki [11]: 16.5 nM; Ki [12]: 445 nM; Activity (Mus musculus [3]): Dose-dependent effect; CLint scaled [4]: 23.7 mL/min/kg; Activity (Rattus norvegicus [13]): 80%; Activity (Rattus norvegicus [14]): 94%; Kp [15]: 2.49; Activity (Rattus norvegicus [16]): 55%
		13.4 nM	9.53 nM	O=C1NCc2ccc(OCCCCN3CCN(c4cccc5cc(F)ccc45)CC3)cc21			969 nM	
0.951 nM		0.0504 nM	1.83 nM	O=C1NCc2ccc(OCCCCN3CCN(c4cccc5cccc(F)c45)CC3)cc21	60%	1 mg/kg	2060 nM	Ki [11]: 26 nM; Activity (Mus musculus [3]): Dose-dependent effect; Activity (Mus musculus [17]): Non-toxic; Activity (Mus musculus [5]): Non-toxic; Activity (Rattus norvegicus [18]): 78.5%; Activity (Rattus norvegicus [19]): 92.3%; Kp [15]: 1.81; Activity (Rattus norvegicus [16]): 53%; Activity (Rattus norvegicus [20]): 99%

Continued, compound first:

SMILES	Ki [6]	Intrinsic activity [7]	Ki [9]	Ki [10]	Intrinsic activity (Mus musculus [2])	minimal effective dose (Mus musculus [3])	Ki [8]	other results
O=C1CCc2ccc(OCCCCN3CCN(c4cccc(Cl)c4Cl)CC3)cc2N1 [ARIPIPRAZOLE]					43%	3 mg/kg		Intrinsic activity [1]: 43%; CLint scaled [4]: 31.7 mL/min/kg; Activity (Mus musculus [5]): Non-toxic
c1ccc2c(N3CCN(CCCCOc4ccc5c(c4)CNC5)CC3)cccc2c1			0.204 nM	5.07 nM			1560 nM	
Fc1ccc2cccc(N3CCN(CCCOc4ccc5c(c4)CNC5)CC3)c2c1		73.3%	0.102 nM	0.72 nM			931 nM	
c1ccc2c(N3CCN(CCCOc4ccc5c(c4)CNC5)CC3)cccc2c1		77.8%	0.149 nM	1.76 nM				
O=C1NCc2ccc(OCCCN3CCN(c4cccc5cc(F)ccc45)CC3)cc21			1.54 nM	3.54 nM			439 nM	
Fc1ccc2cccc(N3CCN(CCCCOc4ccc5c(c4)CNC5)CC3)c2c1			0.243 nM	0.483 nM			1680 nM	
